Columns and labels:
[1] = system: RPMI 8226; test: Incorporation of 3H-thymidine, RPMI 8226; type: cell-based; details: Homo sapiens, 96 hours incubation, then 6 hours 3H-thymidine, read-out: TdR IC50 RPMI 8226
[2] = system: ME 180; test: Incorporation of 3H-thymidine, ME 180; type: cell-based; details: Homo sapiens, ME-180; 96 hours incubation, then 6 hours 3H-thymidine; read-out: TdR IC50 ME 180
[3] = system: AML-193; test: Incorporation of 3H-thymidine, AML-193; details: Homo sapiens, read-out: TdR IC50 AML-193 (nM)
[4] = system: RAR receptors; test: Co-transfection assay, RAR subfamily (summary in words); type: cell-based; details: CV-1 cells
Experimental: Utilizing the "cis-trans" or "co-transfection" assay described by Evans et al., Science, 240:889-95 (May 13, 1988), the disclosure of which is herein incorporated by reference, the retinoid compounds of the present invention were tested and found to have strong, specific activity as either selective RXR agonists, or as pan-agonist activators of both RAR and RXR receptors. This assay is described in further detail in U.S. Pat. Nos. 4,981,784 and 5,071,773, the disclosures of which are incorporated herein by reference.
In the co-transfection assay, a cloned cDNA for an IR (e.g., human RARα, RARβ, RXRγ) under the control of a constitutive promoter (e.g., the SV 40 promoter) is introduced by transfection (a procedure to induce cells to take up foreign genes) into a background cell substantially devoid of endogenous IRs. This introduced gene directs the recipient cells to make the IR protein of interest. A second gene is also introduced (co-transfected) into the same cells in conjunction with the IR gene. […]
The co-transfection assay can detect small molecule agonists or antagonists of target IRs. […] This activity can be conveniently measured, e.g., by increasing luciferase production, which reflects compound-dependent, IR-mediated increases in reporter transcription. […]

Question: Which IC50 [1] does the source give for `CC(/C=C/CC1(c2ccc3c(c2)C(C)(C)CCC3(C)C)CC1)=C\C(=O)O` [Compound 101, (2E, 4E)-6-[1-(5,5,8,8-Tetramethyl-5,6,7,8-tetrahydronaphtha-len-2-yl)cyclopropanyl]-3-methyl hexadienoic acid] here?
Answer: < 0.1 nM

Question: And the IC50 [2]?
Answer: 0.9 nM

Question: What about the IC50 [3] of the same molecule?
Answer: < 0.1 nM

Question: How did the “activity for the RAR receptors” value [4] turn out when `CC(/C=C/CC1(c2cc(C(C)(C)C)cc3c2CCC3(C)C)CC1)=C\C(=O)O` [Compound 107, (2E, 4E)-6-[1-(6-t-butyl-1,1-dimethyl-indan-4-yl)-cyclopropyl]-3-methyl hexadienoic acid] was run?
Answer: no activity at all

Question: `CC(/C=C/CC1(c2ccc3c(c2)C(C)(C)CCC3(C)C)CCCC1)=C\C(=O)O` [Compound 108, (2E, 4E)-6-[(5,5,8,8-Tetramethyl-5,6,7,8-tetrahydronaphtha-len-2-yl)cyclopentane-1-yl]-3-methyl hexadienoic acid] was tested. Which “activity for the RAR receptors” value [4] did it give?
Answer: no activity at all
